Data reported in patent US4058665A, “Novel 3,15-dilower alkyl PGE2 derivatives” (Yamanouchi Pharmaceutical Co., Ltd., priority 1975, dated 1977).

Experiments:
male Sprague-Dawly rats = assay: antiulcer activity, pylorus-ligated fasted rats, samples given by gastric tube, stomach inspected for ulcers 21 hours later; assay type: in vivo, Sprague-Dawly rat; conditions: for ED50: Rattus norvegicus, po, pylorus-ligated rats, 21 hours, figures in parenthesis indicate confidence limit; for b)/a) (ED50 diarrhea / ED50 antiulcer): ratio of diarrhea ED50 to antiulcer ED50, p.o., rats
Protocol: Each of ten male Sprague-Dawly rate, 12 weeks old, in one group was isolated in a cage with a large mesh wire net at the bottom during experimental period and prevented from coprophagia. During this period the animals were completely fasted for 48 hours and water was provided only for 32 hours from the beginning. The animal was anesthetized with ether, the pylorus was ligated through a short midline incision. The samples were administered with a gastric tube immediately after the ligation. The animals were sacrificed 21 hours later with chloroform and their abdomens were widely opened to take out the stomach. The stomach was opened for inspection of ulcers.

[1] = diarrhea activity, fasted rats, samples given by gastric tube, occurrence of diarrhea observed in the following 24 hours; design: species or system Sprague-Dawly rat; conditions: rat, in vivo, po, observed 24 hours, figures in parenthesis indicate confidence limit, read-out: ED50 diarrhea activity
Protocol: Each of five male Sprague-Dawly rats, 12 weeks old, in one group was fasted for 24 hours.

[2] = Prostaglandins, 5, (5) 455-463 (1974); cited from earlier work
[3] = in vivo; cited from earlier work

Structure (SMILES)	ED50 (male Sprague-Dawly rats)	b)/a) (ED50 diarrhea / ED50 antiulcer) (male Sprague-Dawly rats)	TD50 at 24 h [1]	anti-ulcer activity, in words [2]	diarrhea as a side effect, in words [3]
CCCCC[C@](C)(O)/C=C/[C@H]1[C@H](O)CC(=O)[C@@H]1C/C=C\CCCC(=O)OC [B, 11α, 15(S)-dihydroxy-15-methyl-9-oxo-5(cis),13(trans)-prostadienoic acid methyl ester]	0.06 mg/kg	0.8	0.047 mg/kg	–	–
CCCCC[C@@](C)(O)/C=C/[C@H]1[C@H](O)CC(=O)[C@@H]1C/C=C\CCCC(=O)OC [A, 11α, 15(R)-dihydroxy-15-methyl-9-oxo-5(cis),13(trans)-prostadienoic acid methyl ester]	0.098 mg/kg	1.2	0.12 mg/kg	strong anti-ulcer activity	very severe diarrhea
CCCCC[C@@](C)(O)/C=C/[C@H]1[C@H](O)CC(=O)[C@@H]1C/C=C\CC(C)CC(=O)OC (stereo partly drawn) [Compound C, 11α, 15(R)-dihydroxy-3,15-dimethyl-9-oxo-5(cis), 13(trans)-prostadienoic acid methyl ester]	0.2 mg/kg	6.0	1.2 mg/kg	–	–
